In patent US20240208992A1, “MACROCYCLES AS CFTR MODULATORS” (Idorsia Pharmaceuticals Ltd, priority 2021, published 2024):

Molecular target: human F508del-CFTR (Homo sapiens, UniProt P13569, DEL508-508)
Test: F508del-CFTR cell surface expression (corrector activity), DiscoveRx ß-galactosidase complementation chemiluminescence assay in recombinant U2OS cell line;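 further: U2OS cells co-expressing ProLink-tagged F508del-CFTR and a membrane-anchored enzyme acceptor, where more surface CFTR restores β-galactosidase activity measured by chemiluminescence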
Details: U2OS cell line, 16h compound incubation; for EC50: EC50, F508del-CFTR cell surface expression, geomean values; for Emax: U2OS, in relation to the Emax of the corrector lumacaftor (=100%), arithmetic mean values

Sequence of human F508del-CFTR (P13569 with tags, fused parts or gaps DEL508-508): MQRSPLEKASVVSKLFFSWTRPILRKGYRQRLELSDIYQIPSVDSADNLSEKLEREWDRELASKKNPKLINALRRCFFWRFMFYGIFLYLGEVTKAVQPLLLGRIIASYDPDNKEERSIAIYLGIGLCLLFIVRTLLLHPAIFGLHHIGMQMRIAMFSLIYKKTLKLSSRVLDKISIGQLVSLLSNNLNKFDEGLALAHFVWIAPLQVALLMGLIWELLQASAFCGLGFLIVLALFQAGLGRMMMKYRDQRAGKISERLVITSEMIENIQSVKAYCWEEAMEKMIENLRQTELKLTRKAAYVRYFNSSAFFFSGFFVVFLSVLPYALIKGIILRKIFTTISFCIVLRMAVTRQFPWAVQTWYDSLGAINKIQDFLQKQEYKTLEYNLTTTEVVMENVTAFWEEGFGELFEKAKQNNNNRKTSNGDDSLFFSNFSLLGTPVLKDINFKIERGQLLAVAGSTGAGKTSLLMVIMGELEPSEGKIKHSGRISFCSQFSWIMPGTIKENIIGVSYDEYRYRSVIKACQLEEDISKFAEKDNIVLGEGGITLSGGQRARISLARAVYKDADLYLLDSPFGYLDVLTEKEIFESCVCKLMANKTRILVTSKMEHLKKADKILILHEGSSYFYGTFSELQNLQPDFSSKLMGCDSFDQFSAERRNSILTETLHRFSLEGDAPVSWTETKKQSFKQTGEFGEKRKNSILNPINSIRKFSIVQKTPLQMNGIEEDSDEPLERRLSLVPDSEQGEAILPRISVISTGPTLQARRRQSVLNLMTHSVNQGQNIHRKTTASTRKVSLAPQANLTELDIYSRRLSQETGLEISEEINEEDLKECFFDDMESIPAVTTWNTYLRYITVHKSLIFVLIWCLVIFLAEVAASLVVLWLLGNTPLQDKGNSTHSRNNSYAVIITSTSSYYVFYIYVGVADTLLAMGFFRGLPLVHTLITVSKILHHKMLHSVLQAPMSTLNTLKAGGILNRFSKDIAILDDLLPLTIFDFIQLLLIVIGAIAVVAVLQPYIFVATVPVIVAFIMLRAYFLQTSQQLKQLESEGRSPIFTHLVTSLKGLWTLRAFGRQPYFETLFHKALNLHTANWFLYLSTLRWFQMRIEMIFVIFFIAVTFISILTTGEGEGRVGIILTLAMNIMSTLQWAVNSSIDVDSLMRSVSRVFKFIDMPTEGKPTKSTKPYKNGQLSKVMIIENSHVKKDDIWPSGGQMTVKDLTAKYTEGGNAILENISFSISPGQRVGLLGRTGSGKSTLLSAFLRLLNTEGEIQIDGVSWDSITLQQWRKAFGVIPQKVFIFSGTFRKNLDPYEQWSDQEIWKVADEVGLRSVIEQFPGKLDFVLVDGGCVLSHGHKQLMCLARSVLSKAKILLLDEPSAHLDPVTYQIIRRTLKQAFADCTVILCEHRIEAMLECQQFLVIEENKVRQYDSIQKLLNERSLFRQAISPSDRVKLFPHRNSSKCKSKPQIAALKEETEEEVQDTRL

SMILES | EC50 [µM] | Emax [%]
COc1cccc(CCNC(=O)[C@@H]2CC(=O)N(C)[C@@H](CC(C)C)C(=O)N(CCC3CCCCC3)CC(=O)N[C@H](Cc3ccccc3)COc3cc(OC)cc(OC)c3C(=O)N2)c1 [Example 256, (3R,9S,13S)-3-benzyl-7-(2-cyclohexylethyl)-9-isobutyl-16,18-dimethoxy-N-(3-methoxyphenethyl)-10-methyl-5,8,11,15-tetraoxo-2,3,4,5,6,7,8,9,10,11,12,13,14,15-tetradecahydrobenzo[p][1]oxa[4,7,10,14]tetraazacycloheptadecine-13-carboxamide] | 0.147 | 319
COc1cccc2c1C(=O)N[C@H](C(=O)NCCc1ccc3c(c1)OCO3)CC(=O)N(C)CC(=O)N(CCC1CCCCC1)CC(=O)N[C@H](Cc1ccccc1)CO2 [Example 257, (3R,13S)-N-(2-(benzo[d][1,3]dioxol-5-yl)ethyl)-3-benzyl-7-(2-cyclohexylethyl)-16-methoxy-10-methyl-5,8,11,15-tetraoxo-2,3,4,5,6,7,8,9,10,11,12,13,14,15-tetradecahydrobenzo[p][1]oxa[4,7,10,14]tetraazacycloheptadecine-13-carboxamide] | 0.249 | 116
COc1cccc(CCNC(=O)[C@@H]2CC(=O)N(C)CC(=O)N(CCC3CCCCC3)CC(=O)N[C@H](Cc3ccccc3)COc3cccc(OC)c3C(=O)N2)c1 [Example 258, (3R,13S)-3-benzyl-7-(2-cyclohexylethyl)-16-methoxy-N-(3-methoxyphenethyl)-10-methyl-5,8,11,15-tetraoxo-2,3,4,5,6,7,8,9,10,11,12,13,14,15-tetradecahydrobenzo[p][1]oxa[4,7,10,14]tetraazacycloheptadecine-13-carboxamide] | 0.424 | 117
COc1cccc2c1C(=O)N[C@H](C(=O)NCCc1ccc3c(c1)OCCCC3)CC(=O)N(C)[C@@H](CC(C)C)C(=O)N1CCOC[C@@H]1C(=O)N[C@H](Cc1ccccc1)CO2 [Example 260, (7S,11S,20R,22aR)-20-benzyl-7-isobutyl-14-methoxy-8-methyl-6,9,13,22-tetraoxo-N-(2-(2,3,4,5-tetrahydrobenzo[b]oxepin-8-yl)ethyl)-1,3,4,6,7,8,9,10,11,12,13,19,20,21,22,22a-hexadecahydrobenzo[p][1,4]oxazino[3,4-f][1]oxa[4,7,10,14]tetraazacycloheptadecine-11-carboxamide] | 0.783 | 243
CC(C)C[C@H]1C(=O)N(CCC2CCCCC2)CC(=O)N[C@H](Cc2ccccc2)COc2ccncc2C(=O)N[C@H](C(=O)NCCc2ccc3c(c2)OCCC3)CC(=O)N1C [Example 261, (3R,9S,13S)-3-benzyl-N-(2-(chroman-7-yl)ethyl)-7-(2-cyclohexylethyl)-9-isobutyl-10-methyl-5,8,11,15-tetraoxo-2,3,4,5,6,7,8,9,10,11,12,13,14,15-tetradecahydropyrido[3,4-p][1]oxa[4,7,10,14]tetraazacycloheptadecine-13-carboxamide] | 0.327 | 215
CC(C)C[C@H]1C(=O)N(CCC2CCCCC2)CC(=O)N[C@H](Cc2ccccc2)COc2ccncc2C(=O)N[C@H](C(=O)NCCc2ccc3c(c2)OCC3)CC(=O)N1C [Example 262, (3R,9S,13S)-3-benzyl-7-(2-cyclohexylethyl)-N-(2-(2,3-dihydrobenzofuran-6-yl)ethyl)-9-isobutyl-10-methyl-5,8,11,15-tetraoxo-2,3,4,5,6,7,8,9,10,11,12,13,14,15-tetradecahydropyrido[3,4-p][1]oxa[4,7,10,14]tetraazacycloheptadecine-13-carboxamide] | 0.339 | 231
COc1cccc2c1C(=O)N[C@H](C(=O)NCCc1ccc3c(c1)OCO3)CC(=O)N(C)[C@@H](C)C(=O)N(CCC1CCCCC1)CC(=O)N[C@H](Cc1ccccc1)CO2 [Example 263, (3R,9S,13S)-N-(2-(benzo[d][1,3]dioxol-5-yl)ethyl)-3-benzyl-7-(2-cyclohexylethyl)-16-methoxy-9,10-dimethyl-5,8,11,15-tetraoxo-2,3,4,5,6,7,8,9,10,11,12,13,14,15-tetradecahydrobenzo[p][1]oxa[4,7,10,14]tetraazacycloheptadecine-13-carboxamide] | 0.448 | 140
COc1cccc(CCNC(=O)[C@@H]2CC(=O)N(C)[C@@H](C)C(=O)N(CCC3CCCCC3)CC(=O)N[C@H](Cc3ccccc3)COc3cccc(OC)c3C(=O)N2)c1 [Example 264, (3R,9S,13S)-3-benzyl-7-(2-cyclohexylethyl)-16-methoxy-N-(3-methoxyphenethyl)-9,10-dimethyl-5,8,11,15-tetraoxo-2,3,4,5,6,7,8,9,10,11,12,13,14,15-tetradecahydrobenzo[p][1]oxa[4,7,10,14]tetraazacycloheptadecine-13-carboxamide] | 0.442 | 117
CC(C)C[C@H]1C(=O)N(CCC2CCCCC2)CC(=O)N[C@H](Cc2ccccc2)COc2cnccc2C(=O)N[C@H](C(=O)NCCc2ccc3c(c2)OCO3)CC(=O)N1C [Example 265, (3R,9S,13S)-N-(2-(benzo[d][1,3]dioxol-5-yl)ethyl)-3-benzyl-7-(2-cyclohexylethyl)-9-isobutyl-10-methyl-5,8,11,15-tetraoxo-2,3,4,5,6,7,8,9,10,11,12,13,14,15-tetradecahydropyrido[4,3-p][1]oxa[4,7,10,14]tetraazacycloheptadecine-13-carboxamide] | 0.266 | 106
COc1cccc(CCNC(=O)[C@@H]2CC(=O)N(C)[C@@H](CC(C)C)C(=O)N(CCC3CCCCC3)CC(=O)N[C@H](Cc3ccccc3)COc3cnccc3C(=O)N2)c1 [Example 266, (3R,9S,13S)-3-benzyl-7-(2-cyclohexylethyl)-9-isobutyl-N-(3-methoxyphenethyl)-10-methyl-5,8,11,15-tetraoxo-2,3,4,5,6,7,8,9,10,11,12,13,14,15-tetradecahydropyrido[4,3-p][1]oxa[4,7,10,14]tetraazacycloheptadecine-13-carboxamide] | 0.357 | 136
CC(C)C[C@H]1C(=O)N(CCC2CCCCC2)CC(=O)N[C@H](Cc2ccccc2)COc2ccc3ccccc3c2C(=O)N[C@H](C(=O)NCCc2ccc3c(c2)OCO3)CC(=O)N1C [Example 267, (3S,7S,13R)-N-(2-(benzo[d][1,3]dioxol-5-yl)ethyl)-13-benzyl-9-(2-cyclohexylethyl)-7-isobutyl-6-methyl-1,5,8,11-tetraoxo-1,2,3,4,5,6,7,8,9,10,11,12,13,14-tetradecahydronaphtho[1,2-p][1]oxa[4,7,10,14]tetraazacycloheptadecine-3-carboxamide] | 0.107 | 275
COc1cccc(CCNC(=O)[C@@H]2CC(=O)N(C)[C@@H](CC(C)C)C(=O)N(CCC3CCCCC3)CC(=O)N[C@H](Cc3ccccc3)COc3ccc4ccccc4c3C(=O)N2)c1 [Example 268, (3S,7S,13R)-13-benzyl-9-(2-cyclohexylethyl)-7-isobutyl-N-(3-methoxyphenethyl)-6-methyl-1,5,8,11-tetraoxo-1,2,3,4,5,6,7,8,9,10,11,12,13,14-tetradecahydronaphtho[1,2-p][1]oxa[4,7,10,14]tetraazacycloheptadecine-3-carboxamide] | 0.1 | 273
CC(C)C[C@H]1C(=O)N(C)CC(=O)N[C@H](Cc2ccccc2)COc2ccc3ccccc3c2C(=O)N[C@H](C(=O)NCCc2ccc3c(c2)OCO3)CC(=O)N1C [Example 269, (3S,7S,13R)-N-(2-(benzo[d][1,3]dioxol-5-yl)ethyl)-13-benzyl-7-isobutyl-6,9-dimethyl-1,5,8,11-tetraoxo-1,2,3,4,5,6,7,8,9,10,11,12,13,14-tetradecahydronaphtho[1,2-p][1]oxa[4,7,10,14]tetraazacycloheptadecine-3-carboxamide] | 0.35 | 251
Cc1cc2c(cn1)C(=O)N[C@H](C(=O)NCCc1ccc3c(c1)OCO3)CC(=O)N(C)[C@@H](CC(C)C)C(=O)N(CCC1CCCCC1)CC(=O)N[C@H](Cc1ccccc1)CO2 [Example 270, (3R,9S,13S)-N-(2-(benzo[d][1,3]dioxol-5-yl)ethyl)-3-benzyl-7-(2-cyclohexylethyl)-9-isobutyl-10,18-dimethyl-5,8,11,15-tetraoxo-2,3,4,5,6,7,8,9,10,11,12,13,14,15-tetradecahydropyrido[3,4-p][1]oxa[4,7,10,14]tetraazacycloheptadecine-13-carboxamide] | 0.423 | 172
COc1cccc(CCNC(=O)[C@@H]2CC(=O)N(C)[C@@H](CC(C)C)C(=O)N(CCC3CCCCC3)CC(=O)N[C@H](Cc3ccccc3)COc3cc(C)ncc3C(=O)N2)c1 [Example 271, (3R,9S,13S)-3-benzyl-7-(2-cyclohexylethyl)-9-isobutyl-N-(3-methoxyphenethyl)-10,18-dimethyl-5,8,11,15-tetraoxo-2,3,4,5,6,7,8,9,10,11,12,13,14,15-tetradecahydropyrido[3,4-p][1]oxa[4,7,10,14]tetraazacycloheptadecine-13-carboxamide] | 0.266 | 185
COc1cc(OC)c2c(c1)OC[C@@H](Cc1ccccc1)NC(=O)CN(CCC1CCCCC1)C(=O)[C@H](C)N(C)C(=O)C[C@@H](C(=O)NCCc1ccc3c(c1)OCO3)NC2=O [Example 272, (3R,9S,13S)-N-(2-(benzo[d][1,3]dioxol-5-yl)ethyl)-3-benzyl-7-(2-cyclohexylethyl)-16,18-dimethoxy-9,10-dimethyl-5,8,11,15-tetraoxo-2,3,4,5,6,7,8,9,10,11,12,13,14,15-tetradecahydrobenzo[p][1]oxa[4,7,10,14]tetraazacycloheptadecine-13-carboxamide] | 0.374 | 176
COc1cccc(CCNC(=O)[C@@H]2CC(=O)N(C)[C@@H](C)C(=O)N(CCC3CCCCC3)CC(=O)N[C@H](Cc3ccccc3)COc3cc(OC)cc(OC)c3C(=O)N2)c1 [Example 273, (3R,9S,13S)-3-benzyl-7-(2-cyclohexylethyl)-16,18-dimethoxy-N-(3-methoxyphenethyl)-9,10-dimethyl-5,8,11,15-tetraoxo-2,3,4,5,6,7,8,9,10,11,12,13,14,15-tetradecahydrobenzo[p][1]oxa[4,7,10,14]tetraazacycloheptadecine-13-carboxamide] | 0.365 | 169
